Experiments:
Settings in all cases: dose 6.7 µg/ml
[1] = biological target: T1, Tyrosine-protein phosphatase non-receptor type 2 (Homo sapiens) (UniProt P17706); assay: Inhibition of human recombinant TCPTP expressed in Escherichia coli assessed as inhibition of phosphatase activity by measuring p-nitrophenyl phosphate at 6.7 microg/ml measured after 60 mins
T1 sequence (whole entry): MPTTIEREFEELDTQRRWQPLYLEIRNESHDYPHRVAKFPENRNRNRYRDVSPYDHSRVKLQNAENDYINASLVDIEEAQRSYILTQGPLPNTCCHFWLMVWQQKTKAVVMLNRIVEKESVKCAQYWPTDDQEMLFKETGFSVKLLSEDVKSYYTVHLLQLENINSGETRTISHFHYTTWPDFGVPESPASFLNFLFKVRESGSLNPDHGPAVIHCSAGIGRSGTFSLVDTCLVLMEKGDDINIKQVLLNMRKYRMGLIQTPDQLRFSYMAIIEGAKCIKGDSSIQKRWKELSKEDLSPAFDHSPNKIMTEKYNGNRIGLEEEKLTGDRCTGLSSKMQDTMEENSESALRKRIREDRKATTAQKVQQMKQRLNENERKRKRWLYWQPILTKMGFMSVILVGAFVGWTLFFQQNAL

[2] = biological target: Tyrosine-protein phosphatase non-receptor type 6 (Homo sapiens) (UniProt P29350); assay: Inhibition of human recombinant SHP1 expressed in Escherichia coli assessed as inhibition of phosphatase activity by measuring p-nitrophenyl phosphate at 6.7 microg/ml measured after 60 mins
[3] = biological target: T2, Tyrosine-protein phosphatase non-receptor type 9 (Homo sapiens) (UniProt P43378); assay: Inhibition of human recombinant MEG2 expressed in Escherichia coli assessed as inhibition of phosphatase activity by measuring p-nitrophenyl phosphate at 6.7 microg/ml measured after 60 mins
T2 sequence (whole entry): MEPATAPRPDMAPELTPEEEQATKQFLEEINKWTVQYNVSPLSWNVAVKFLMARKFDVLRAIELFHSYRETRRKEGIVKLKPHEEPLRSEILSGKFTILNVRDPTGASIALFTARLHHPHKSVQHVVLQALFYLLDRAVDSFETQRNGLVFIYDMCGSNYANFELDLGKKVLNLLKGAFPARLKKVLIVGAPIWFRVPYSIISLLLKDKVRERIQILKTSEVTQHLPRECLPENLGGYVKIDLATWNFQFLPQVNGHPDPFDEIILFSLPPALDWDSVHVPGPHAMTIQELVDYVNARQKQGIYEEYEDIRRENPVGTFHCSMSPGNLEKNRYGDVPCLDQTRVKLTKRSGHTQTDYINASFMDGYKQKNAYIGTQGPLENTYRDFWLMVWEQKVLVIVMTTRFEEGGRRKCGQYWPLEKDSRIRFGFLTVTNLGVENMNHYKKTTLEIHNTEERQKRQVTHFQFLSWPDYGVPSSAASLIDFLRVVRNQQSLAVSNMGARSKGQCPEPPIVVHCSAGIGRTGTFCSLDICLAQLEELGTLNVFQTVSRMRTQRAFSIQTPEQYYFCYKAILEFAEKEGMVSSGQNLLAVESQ

[4] = biological target: T3, Tyrosine-protein phosphatase non-receptor type 1 (Homo sapiens) (UniProt P18031); assay: Inhibition of human recombinant PTP1B expressed in Escherichia coli assessed as inhibition of phosphatase activity by measuring p-nitrophenyl phosphate at 6.7 microg/ml measured after 60 mins
T3 sequence (whole entry): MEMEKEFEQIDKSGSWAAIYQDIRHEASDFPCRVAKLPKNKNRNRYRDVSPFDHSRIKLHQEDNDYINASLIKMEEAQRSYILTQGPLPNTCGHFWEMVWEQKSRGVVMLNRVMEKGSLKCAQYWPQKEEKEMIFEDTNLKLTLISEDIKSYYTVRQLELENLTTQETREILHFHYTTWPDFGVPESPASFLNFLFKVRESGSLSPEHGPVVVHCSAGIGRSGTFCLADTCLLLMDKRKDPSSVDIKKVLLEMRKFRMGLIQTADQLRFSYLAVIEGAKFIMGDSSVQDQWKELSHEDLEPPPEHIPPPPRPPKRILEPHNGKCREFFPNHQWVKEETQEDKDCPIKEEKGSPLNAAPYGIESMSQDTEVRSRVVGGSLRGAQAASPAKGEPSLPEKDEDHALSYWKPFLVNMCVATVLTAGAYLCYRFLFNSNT

Tyrosine-protein phosphatase non-receptor type 6 (Homo sapiens), sequence (P29350 whole entry): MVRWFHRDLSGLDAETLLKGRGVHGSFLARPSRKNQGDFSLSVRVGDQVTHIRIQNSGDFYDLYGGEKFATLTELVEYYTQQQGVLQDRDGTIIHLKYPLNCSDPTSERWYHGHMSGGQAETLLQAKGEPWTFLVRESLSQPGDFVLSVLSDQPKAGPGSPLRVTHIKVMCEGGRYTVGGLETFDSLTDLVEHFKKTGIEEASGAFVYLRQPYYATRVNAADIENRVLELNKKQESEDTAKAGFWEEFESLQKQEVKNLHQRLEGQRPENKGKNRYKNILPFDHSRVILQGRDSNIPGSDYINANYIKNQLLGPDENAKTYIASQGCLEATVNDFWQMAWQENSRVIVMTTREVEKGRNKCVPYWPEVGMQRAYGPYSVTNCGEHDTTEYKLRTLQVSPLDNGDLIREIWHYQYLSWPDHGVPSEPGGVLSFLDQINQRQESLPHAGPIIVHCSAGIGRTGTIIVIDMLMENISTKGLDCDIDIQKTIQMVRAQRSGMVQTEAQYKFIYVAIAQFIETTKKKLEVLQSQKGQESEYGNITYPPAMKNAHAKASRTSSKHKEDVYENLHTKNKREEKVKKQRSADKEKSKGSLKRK

| SMILES | inhibition [1] | inhibition [2] | inhibition [3] | inhibition [4] |
| --- | --- | --- | --- | --- |
| COC(=O)[C@]12C3=C(C)O[C@@H]4OC(=O)[C@](C)(C[C@H]5C(C)=C6CC(=O)O[C@@]6(C(C)(C)O)[C@H](O3)[C@H](O)[C@@]51C)[C@@H]42 | < 60% | < 60% | < 60% | < 60% |
| COC(=O)[C@]12C(=O)[C@H](C)O[C@@H]3OC(=O)[C@](C)(C[C@H]4C(C)=C5CC(=O)OC(C)(C)C5=CC[C@@]41C)[C@@H]32 [BERKELEYACETAL A] | < 60% | < 60% | < 60% | < 60% |
| COC(=O)CC1=C(C)[C@@H]2C[C@@]3(C)C(=O)O[C@H]4O[C@@H](C)[C@@]5(O)O[C@@H]([C@@H]6O[C@]16C(C)(C)O)[C@]2(C)[C@@]5(C(=O)OC)[C@H]43 | < 60% | < 60% | < 60% | < 60% |
| COC(=O)[C@]12C(=O)[C@@](C)(O)C(=O)[C@](C)(C[C@H]3C(C)=C4CC(=O)OC(C)(C)C4=CC[C@@]31C)[C@]21CO1 | < 60% | < 60% | < 60% | < 60% |
| COC(=O)[C@]12C3=C(C)O[C@@H]4OC(=O)[C@](C)(C[C@H]5C(C)=C6CC(=O)O[C@@]6(C(C)(C)O)[C@@H](C[C@@]51C)O3)[C@@H]42 | < 60% | < 60% | < 60% | < 60% |
| COC(=O)[C@]12[C@@H]3[C@H]4OC(=O)[C@]3(C)CC3=C(C)C5=C(C[C@H](O[C@]1(O)[C@H](C)O4)[C@@]32C)C(C)(C)OC(=O)C5 | < 60% | < 60% | < 60% | < 60% |
| CC1=C2CC(=O)OC(C)(C)C2=CC[C@@]2(C)[C@H]1C[C@@](C)(C(=O)O)[C@]13COC(=O)[C@@]12C(=O)[C@H](C)O3 | < 60% | < 60% | < 60% | < 60% |
| COC(=O)[C@@]12[C@@]3(C)[C@@H]4C=C5C(=CC(=O)OC5(C)C)[C@@](C)(O)[C@@H]3C[C@@]3(C)C(=O)O[C@@H](O[C@@H](C)[C@@]1(O)O4)[C@@]23O | < 60% | < 60% | < 60% | < 60% |

The next lines start with the values.

| inhibition [1] | inhibition [2] | inhibition [3] | inhibition [4] | SMILES |
| --- | --- | --- | --- | --- |
| < 60% | < 60% | < 60% | < 60% | COC(=O)[C@]12[C@@H]3[C@@H](O)O[C@@H](C)[C@@]14OC(=O)[C@]3(C)C[C@H]1C(C)=C3CC(=O)OC(C)(C)[C@@]35O[C@H]5[C@H](O4)[C@@]12C |
| < 60% | < 60% | < 60% | < 60% | COC(=O)[C@]12[C@@H]3[C@H]4OC(=O)[C@]3(C)C[C@H]3C(C)=C5CC(=O)OC(C)(C)[C@@]56O[C@H]6[C@H](O[C@]1(O)[C@H](C)O4)[C@@]32C |
| < 60% | < 60% | < 60% | < 60% | CC1=C2CC(=O)OC(C)(C)[C@]23O[C@@H]3[C@@H]2O[C@@]3(O)[C@@H](C)O[C@H]4OC(=O)[C@]5(C)C[C@H]1[C@]2(C)[C@@]31C(=O)O[C@@]415 |
| < 60% | < 60% | < 60% | < 60% | COC(=O)CC1=C(C)[C@H]2C[C@]3(C)C(=O)O[C@@H]4O[C@H](C)[C@]5(O)O[C@@H]([C@H]6O[C@@]16C(C)(C)O)[C@@]2(C)[C@@]51C(=O)O[C@@]413 |
| < 60% | < 60% | < 60% | < 60% | COC(=O)CC1=C(C)[C@@H]2C[C@@]3(C)C(=O)O[C@H]4O[C@@H](C)[C@@]5(O)O[C@@H]([C@@H]6O[C@]16C(C)(C)O)[C@]2(C)[C@@]5(C(=O)OC)[C@]43O |

— ChEMBL document CHEMBL4828768, “Talaromynoids A-I, Highly Oxygenated Meroterpenoids from the Marine-Derived Fungus Talaromyces purpureogenus SCSIO 41517 and Their Lipid Accumulation Inhibitory Activities” (J Nat Prod, 2021)
